Assay results from US7714014B2, “Targeting GLI proteins in human cancer by small molecules” (The Regents of the University of California, priority 2005, dated 2010).

Key:
[1] = system: Panc4.21 (pancreatic cancer); experiment: Apoptosis analysis (Annexin V FITC, flow cytometry); assay type: cell-based, human; settings: 3 days
Method: (§1) Apoptosis was analyzed by using an Annexin V FITC Apoptosis Detection Kit (Biosource, Camarillo, Calif.), according to the manufacturer's protocol. After treatment with different small molecule compounds at various concentrations for about 3 days, cells were harvested by trypsinization, stained and immediately analyzed by flow cytometry (FACScan; Decton Dickinson, Franklin Lake, N.J.). Early apoptotic cells with exposed phosphatidylserine but intact cell membranes will bind to Annexin V-FITC, but not propidium iodide (PI). Cells in necrotic or late apoptotic stages will be labeled with both Annexin V-FITC and PI. “% apoptotic cells” or “% apoptosis” refers to the combined early and late apoptotic cells.
(§2) Flow cytometry was also used to examine apoptosis induced by molecule compounds FN1-5 and FN1-8 in the human pancreatic cancer cell lines L3.6sl, Panc4.21, BxPC3, and CFPAC-1 cells. […] For example, app.

[2] = system: L3.6s1 (pancreatic cancer); experiment: as above; assay type: cell-based, human; settings: 3 days
Method: as §1, §2

[3] = system: BxPC3 (pancreatic cancer); experiment: as above; assay type: cell-based, human; settings: 3 days
Method: as §1, §2

[4] = system: CFPAC-1 (pancreatic cancer); experiment: as above; assay type: cell-based, human; settings: 3 days
Method: as §1, §2

[5] = system: human breast cancer cell line MCF-7; experiment: Cell survival assay (crystal violet); assay type: cell-based; settings: for cell killing: MCF-7, 50 μM
Method: Typically, the small molecule compounds of the present invention were dissolved in DMSO at a concentration of 30 mM. The small molecule compounds were then tested under cell culture conditions at different concentrations ranging from 0, 10, 30, 50, to 100 uM. To determine cell survival after treatment, the cells were incubated with the small molecule compounds in 6-well plates for about 3 days. After removal of the cell culture medium, 1-ml of 0.5% crystal violet solution (prepared in 20% ethanol and 20% methanol) was added to stain the cells for 5 min. Then the crystal violet solution was rinsed clean with tap water. Cell survival was estimated based on the density of crystal stained plates.
The cell-based cytotoxicity assay described herein was used to determine the effect of small molecule compounds FN1-5 and FN1-8 in the human breast cancer cell line MCF-7. Viability of MCF-7 cells was analyzed after treatment with 30 and 50 μM FN1-5 and after treatment with 10, 30, and 50 μM FN1-8.

Colon Cancer HT29 tumor = experiment: Mouse Xenograft Model (Colon Cancer HT29); assay type: in vivo
Method: The small molecule compound FN1-8 was tested in vivo in the mouse xenograft model bearing human cancer cells. Briefly, female athymic nude mice strain NCRNU-M (5-10 weeks old, 20-25 grams in weight; Taconic, Germantown, N.Y.) was maintained in pathogen-free conditions. Three human cancer cell lines: NSCLC H460, melanoma LOX, (both showing Gli3 activation), and colon cancer HT29 (no Gli3 activation, as a negative control), were used. Ten mice were used in each group and injected s.c. with 3×10^6 cancer cells in the dorsal area in a volume of 100 μl. After inoculation, human cancer cells were allowed to grow in mice for 7 days to become visible tumor nodules. Animals were then injected with small molecule compound FN1-8 at a dose of 50 mg/kg body weight (1 mg/mouse per day). DMSO alone was used as control. The compounds and controls were adjusted in 40 ul volume for i.p. injection in the abdomens of the mice. […] Tumor size was measured every three days, and tumor volumes were calculated using width (x) and length (y) (x^2y/2, where x<y). […]
In vivo efficacy study of small molecule compound FN1-8 were also performed using a negative Mouse Xenograft Model (Colon Cancer HT29). […] Tumor size was measured with a caliper every three days. Tumor volumes were calculated using the equation x^2y (where x<y). […]

Compound: O=C(NCCc1ccc(O)cc1)C1C(c2ccccc2)=NN(c2ccccc2)C1c1ccccc1 (centres unmarked) [FN1-8, N-(2-(4-Hydroxyphenyl)ethyl)-1,3,5-triphenyl-4,5-dihydro-pyrazole-4-carboxyamide]
- % of apoptotic cells ([1]; Panc4.21, 10 μM): 11.2%
- % of apoptotic cells ([1]; Panc4.21, 30 μM): 10.6%
- % of apoptotic cells ([1]; Panc4.21, 50 μM): 23.4%
- % of apoptotic cells ([2]; L3.6s1, 10 μM): 12.8%
- % of apoptotic cells ([2]; L3.6s1, 30 μM): 25.1%
- % of apoptotic cells ([2]; L3.6s1, 50 μM): 45.7%
- % of apoptotic cells ([3]; BxPC3, 10 μM): 11.4%
- % of apoptotic cells ([3]; BxPC3, 30 μM): 20.4%
- % of apoptotic cells ([3]; BxPC3, 50 μM): 77.4%
- % of apoptotic cells ([4]; CFPAC-1, 10 μM): 15.4%
- % of apoptotic cells ([4]; CFPAC-1, 30 μM): 15.0%
- % of apoptotic cells ([4]; CFPAC-1, 50 μM): 19.8%
- cell killing potency compared with FN1-5 ([5]; MCF-7): more potent
- cell killing [5]: dramatic cell killing
- tumor growth (Colon Cancer HT29 tumor; 50 mg/kg i.p. daily for 2×6 days): not affected

Compound: O=C(NCCCCCO)C1C(c2ccccc2)=NN(c2ccccc2)C1c1ccccc1 (centres unmarked) [FN1-5, N-(5-Hydroxypentyl)-1,3,5-triphenyl-4,5-dihydro-pyrazole-4-carboxyamide]
- % of apoptotic cells ([1]; Panc4.21, 30 μM): 9.3%
- % of apoptotic cells ([1]; Panc4.21, 50 μM): 10.3%
- apoptosis induction ([1]; Panc4.21, 30 and 50 μM): did not seem to induce apoptosis
- % of apoptotic cells ([2]; L3.6s1, 30 μM): 27.5%
- % of apoptotic cells ([2]; L3.6s1, 50 μM): 44.8%
- % of apoptotic cells ([3]; BxPC3, 30 μM): 11.2%
- % of apoptotic cells ([3]; BxPC3, 50 μM): 30.0%
- % of apoptotic cells ([4]; CFPAC-1, 30 μM): 17.4%
- % of apoptotic cells ([4]; CFPAC-1, 50 μM): 30.6%
- cell killing [5]: dramatic cell killing
- tumor weight (Colon Cancer HT29 tumor; 15 mg/kg daily 2×6 days then 30 mg/kg daily 1×6 days i.p., 43 days after inoculation): slightly decreased the tumor weight
